The values that follow come from ChEMBL document CHEMBL3879911, “Heteroaryl compounds useful as inhibitors of E1 activating enzymes” (2008).

This test concerns the target T1, NEDD8 activating enzyme (Homo sapiens, UniProt Q8TBC4).
T1 sequence (Q8TBC4 whole entry): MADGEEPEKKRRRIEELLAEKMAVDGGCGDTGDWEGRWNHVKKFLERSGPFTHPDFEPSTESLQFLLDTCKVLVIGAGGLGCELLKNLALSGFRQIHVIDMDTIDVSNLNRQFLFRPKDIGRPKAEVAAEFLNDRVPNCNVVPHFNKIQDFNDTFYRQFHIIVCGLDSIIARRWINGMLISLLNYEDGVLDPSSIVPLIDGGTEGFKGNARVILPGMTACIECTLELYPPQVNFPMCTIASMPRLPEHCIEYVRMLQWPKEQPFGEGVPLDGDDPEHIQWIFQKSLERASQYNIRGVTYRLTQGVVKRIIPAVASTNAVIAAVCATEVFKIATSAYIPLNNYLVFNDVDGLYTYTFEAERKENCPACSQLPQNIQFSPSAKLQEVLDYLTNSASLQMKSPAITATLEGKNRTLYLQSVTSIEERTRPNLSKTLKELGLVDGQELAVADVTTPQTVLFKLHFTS
T1 sequence (Q13564 whole entry): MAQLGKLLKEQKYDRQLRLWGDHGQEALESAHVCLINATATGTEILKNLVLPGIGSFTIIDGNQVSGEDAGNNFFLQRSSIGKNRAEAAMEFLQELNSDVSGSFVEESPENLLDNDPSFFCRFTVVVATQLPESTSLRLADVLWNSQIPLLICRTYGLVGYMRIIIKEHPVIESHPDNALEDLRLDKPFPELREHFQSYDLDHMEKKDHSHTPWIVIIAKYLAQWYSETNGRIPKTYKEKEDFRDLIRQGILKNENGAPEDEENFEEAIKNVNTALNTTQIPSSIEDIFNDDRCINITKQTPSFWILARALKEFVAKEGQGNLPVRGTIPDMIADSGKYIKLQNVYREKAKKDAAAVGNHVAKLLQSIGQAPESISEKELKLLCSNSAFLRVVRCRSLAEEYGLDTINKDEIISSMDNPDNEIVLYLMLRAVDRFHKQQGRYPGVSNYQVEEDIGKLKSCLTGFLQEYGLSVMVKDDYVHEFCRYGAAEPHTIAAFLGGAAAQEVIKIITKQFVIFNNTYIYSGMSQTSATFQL
The test is described as follows: Inhibition of recombinant human NAEalpha/N-terminal His-tagged NAEbeta expressed in baculovirus infected insect Sf9 cells using N-terminal FLAG tagged Nedd8 as substrate incubated for 105 mins in presence of N-terminal GST-tagged Ubc12 by FRET assay.
For the compound `NS(=O)(=O)OCC1C[C@@H](Nc2ncnc3[nH]c(C4CCCc5ccccc54)nc23)C[C@@H]1O` (single isomer, unassigned), the IC50 was no more than 0.5 µM.

Turning to `NS(=O)(=O)OC[C@H]1CC[C@H](Oc2ncnc3[nH]c(-c4cccc5ccccc45)nc23)C1`, the IC50 was in the range of 0.5 to 10 µM.

As to `NS(=O)(=O)OC[C@@H]1C[C@@H](Nc2ncnc3[nH]c(-c4ccccc4Cl)nc23)C[C@@H]1O`, the IC50 is no more than 0.5 µM.

With `NS(=O)(=O)OC[C@H]1C[C@@H](Nc2cc(NCc3ccccc3)ncn2)[C@H](O)[C@@H]1O`, the IC50 was no more than 0.5 µM.

As to `NS(=O)(=O)OC[C@@H]1C[C@@H](Oc2ccnc3[nH]c(-c4cccc5ccccc45)nc23)C[C@@H]1O`, the half-maximal inhibitory concentration (IC50) is no more than 0.5 µM.

With `Cc1nc(NCc2ccccc2)cc(N[C@@H]2C[C@H](COS(N)(=O)=O)[C@@H](O)[C@H]2O)n1`, the IC50 was greater than 10 µM.

On to `COc1cccc(-c2nc3c(N[C@@H]4C[C@@H](COS(N)(=O)=O)[C@@H](O)C4)ncnc3[nH]2)c1`, for which the IC50 is no more than 0.5 µM.

Take `NS(=O)(=O)OC[C@H]1C[C@@H](NC(=O)c2ccncc2)[C@H](O)[C@@H]1O`: the IC50 lay in the range of 0.5 to 10 µM.

In the case of `CO[C@H]1Cc2ccccc2[C@H]1Nc1ncnc(N[C@@H]2C[C@H](COS(N)(=O)=O)[C@@H](O)[C@H]2O)n1`, the IC50 is no more than 0.5 µM.

Take `NS(=O)(=O)OC[C@H]1C[C@@H](Nc2cc(N[C@H]3CCc4c(F)cccc43)ncn2)[C@H](O)[C@@H]1O`: the IC50 is no more than 0.5 µM.

Turning to `NS(=O)(=O)OC[C@@H]1C[C@@H](Cc2cc(N[C@H]3CCc4ccccc43)ncn2)C[C@@H]1O`, the IC50 lay within 0.5 to 10 µM.

With `NS(=O)(=O)OC[C@@H]1C[C@@H](Oc2ccnc(N[C@H]3CCc4ccccc43)c2)C[C@@H]1O`, the IC50 lay within 0.5 to 10 µM.

Turning to `Cc1cccc(S(=O)(=O)c2nc3c(O[C@@H]4C[C@@H](COS(N)(=O)=O)[C@@H](O)C4)ncnc3[nH]2)c1`, the IC50 is no more than 0.5 µM.

For `NS(=O)(=O)OC[C@@H]1C[C@@H](Nc2ncnc3nc(-c4cccc5c4OCC5)[nH]c23)C[C@@H]1O`, the IC50 is no more than 0.5 µM.

As to `CO[C@H]1Cc2ccccc2[C@H]1Nc1cc(N[C@@H]2C[C@H](COS(N)(=O)=O)[C@@H](O)[C@H]2O)ncn1`, the IC50 was no more than 0.5 µM.

In the case of `NS(=O)(=O)OC[C@@H]1C[C@@H](Oc2ncnc3[nH]c(-c4cccc5ccccc45)nc23)C[C@@H]1O`, the IC50 was no more than 0.5 µM.

As to `NS(=O)(=O)OC[C@H]1C[C@@H](Nc2ccnc(C(=O)N[C@H]3CCc4ccccc43)c2)[C@H](O)[C@@H]1O`, the IC50 was greater than 10 µM.

As a reminder, the IC50 is the midpoint of a concentration-inhibition curve.
